Assay results as given in patent publication US20250333407A1, “Compounds and Their Use for Treatment of Hemoglobinopathies” (Bristol-Myers Squibb Company, priority 2024, published 2025).

Assays:
Assay type in all cases: cell-based
WIZ = molecular target: T1, WIZ (Homo sapiens, UniProt O95785+Q96SW2); assay: HUDEP-2 WIZ HiBiT degradation assay; conditions: HiBiT-tagged WIZ degradation in HUDEP-2 cells, 24 hours of treatment; read-out: WIZ EC50
T1 construct: HUDEP-2 cells engineered to express a HiBiT tag in either the WIZ (Widely interspaced zinc finger) or ZBTB7A
Outline: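 HiBiT-tagged HUDEP-2 cells at 1.0×10^6 cells/ml in SFEM II with SCF, EPO, dexamethasone and doxycycline, treated 24 h at 37 °C with a 10-point series ([…]). Luminescence after HiBiT lytic detection, normalized to DMSO; EC50 and Y-min from fitted curves.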

HbF = HbF HiBiT induction assay in HUDEP-2 cells; conditions: HUDEP-2 cells with HiBiT tag in HBG1/2, 72 hours of treatment; area under the dose response curve, higher AUC = greater HbF induction
Outline: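 HUDEP-2 cells carrying a HiBiT tag on HBG1/2 were exposed to compounds for 72 h at 37° C, 5% CO2, in IMDM with EPO, hSCF, DOX, transferrin, insulin, heparin and 5% human plasma. HiBiT luminescence was read after lytic detection; HbF induction is expressed as dose-response AUC, alongside EC50 and Ymax.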

ZBTB7A = molecular target: T2, ZBTB7A (Homo sapiens, UniProt O95365+Q96SW2); assay: HUDEP-2 ZBTB7A HiBiT degradation assay; conditions: HiBiT-tagged ZBTB7A degradation in HUDEP-2 cells, 24 hours of treatment; read-out: ZBTB7A EC50
T2 construct: HUDEP-2 cells engineered to express a HiBiT tag in either the WIZ (Widely interspaced zinc finger) or ZBTB7A
Outline: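 HiBiT-tagged HUDEP-2 cells were pre-cultured 48 h in IMDM with EPO, SCF, doxycycline and 5% human plasma, then exposed to compounds at 1.0×10^6 cells/ml for 24 h at 37 °C. Nano-Glo HiBiT lytic luminescence, normalised to DMSO over 10 concentrations, gave EC50 and Y-min.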

T2 sequence (O95365 whole entry): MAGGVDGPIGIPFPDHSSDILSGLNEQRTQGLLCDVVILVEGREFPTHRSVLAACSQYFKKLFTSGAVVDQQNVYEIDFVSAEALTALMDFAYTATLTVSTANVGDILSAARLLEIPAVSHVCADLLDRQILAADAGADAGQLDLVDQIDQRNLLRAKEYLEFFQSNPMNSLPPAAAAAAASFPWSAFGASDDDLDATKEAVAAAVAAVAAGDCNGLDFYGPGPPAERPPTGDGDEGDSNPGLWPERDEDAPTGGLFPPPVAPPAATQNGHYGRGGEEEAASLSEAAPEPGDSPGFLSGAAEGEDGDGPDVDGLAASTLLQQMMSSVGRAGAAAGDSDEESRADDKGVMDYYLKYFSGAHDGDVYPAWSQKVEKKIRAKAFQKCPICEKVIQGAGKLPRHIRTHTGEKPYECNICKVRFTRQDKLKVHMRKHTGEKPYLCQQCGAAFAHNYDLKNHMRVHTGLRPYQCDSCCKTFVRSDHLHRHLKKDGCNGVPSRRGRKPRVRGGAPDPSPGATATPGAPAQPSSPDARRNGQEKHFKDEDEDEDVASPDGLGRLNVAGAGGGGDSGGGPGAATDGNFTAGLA
T2 sequence (Q96SW2 whole entry): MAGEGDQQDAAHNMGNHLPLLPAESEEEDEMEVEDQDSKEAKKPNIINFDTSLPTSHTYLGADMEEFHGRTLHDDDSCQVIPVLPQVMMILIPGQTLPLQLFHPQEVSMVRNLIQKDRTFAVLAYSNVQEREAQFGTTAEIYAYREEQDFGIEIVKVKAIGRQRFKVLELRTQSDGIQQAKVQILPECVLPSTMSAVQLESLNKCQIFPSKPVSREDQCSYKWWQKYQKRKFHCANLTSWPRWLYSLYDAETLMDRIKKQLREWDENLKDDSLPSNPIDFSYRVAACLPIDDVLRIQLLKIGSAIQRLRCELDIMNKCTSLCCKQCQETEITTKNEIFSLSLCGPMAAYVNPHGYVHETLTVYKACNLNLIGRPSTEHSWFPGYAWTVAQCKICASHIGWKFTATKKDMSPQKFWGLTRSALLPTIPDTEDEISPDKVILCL
T2 sequence (Q16531 whole entry partner): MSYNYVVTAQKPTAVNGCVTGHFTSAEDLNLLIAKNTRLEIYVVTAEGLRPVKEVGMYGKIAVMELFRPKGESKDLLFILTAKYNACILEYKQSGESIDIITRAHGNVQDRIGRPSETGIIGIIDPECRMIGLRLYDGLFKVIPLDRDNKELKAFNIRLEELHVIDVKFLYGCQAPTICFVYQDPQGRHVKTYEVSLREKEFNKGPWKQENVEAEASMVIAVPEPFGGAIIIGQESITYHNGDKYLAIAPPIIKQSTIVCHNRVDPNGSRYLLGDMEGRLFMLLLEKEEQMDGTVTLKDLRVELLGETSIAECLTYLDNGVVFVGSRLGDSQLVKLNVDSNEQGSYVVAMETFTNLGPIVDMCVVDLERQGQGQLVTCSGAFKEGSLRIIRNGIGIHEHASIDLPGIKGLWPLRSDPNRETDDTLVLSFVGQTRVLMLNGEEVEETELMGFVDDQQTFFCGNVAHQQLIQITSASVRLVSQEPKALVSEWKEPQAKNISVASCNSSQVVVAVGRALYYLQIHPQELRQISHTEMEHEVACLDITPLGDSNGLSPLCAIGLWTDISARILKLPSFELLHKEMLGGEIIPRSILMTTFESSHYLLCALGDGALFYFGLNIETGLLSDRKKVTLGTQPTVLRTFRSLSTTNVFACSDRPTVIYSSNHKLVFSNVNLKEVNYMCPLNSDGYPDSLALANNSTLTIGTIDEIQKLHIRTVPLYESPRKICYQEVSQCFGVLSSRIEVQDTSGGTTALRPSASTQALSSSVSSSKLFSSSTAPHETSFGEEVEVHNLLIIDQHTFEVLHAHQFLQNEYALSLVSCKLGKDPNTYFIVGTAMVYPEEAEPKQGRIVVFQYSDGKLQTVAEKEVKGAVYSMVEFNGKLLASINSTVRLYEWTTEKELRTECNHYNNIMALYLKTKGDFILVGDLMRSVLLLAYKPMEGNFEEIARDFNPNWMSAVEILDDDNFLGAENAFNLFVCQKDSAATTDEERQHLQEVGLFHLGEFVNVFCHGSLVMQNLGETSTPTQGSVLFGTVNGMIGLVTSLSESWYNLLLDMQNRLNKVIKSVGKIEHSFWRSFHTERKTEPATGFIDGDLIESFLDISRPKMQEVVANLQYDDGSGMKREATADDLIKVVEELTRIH
T1 sequence (O95785 whole entry): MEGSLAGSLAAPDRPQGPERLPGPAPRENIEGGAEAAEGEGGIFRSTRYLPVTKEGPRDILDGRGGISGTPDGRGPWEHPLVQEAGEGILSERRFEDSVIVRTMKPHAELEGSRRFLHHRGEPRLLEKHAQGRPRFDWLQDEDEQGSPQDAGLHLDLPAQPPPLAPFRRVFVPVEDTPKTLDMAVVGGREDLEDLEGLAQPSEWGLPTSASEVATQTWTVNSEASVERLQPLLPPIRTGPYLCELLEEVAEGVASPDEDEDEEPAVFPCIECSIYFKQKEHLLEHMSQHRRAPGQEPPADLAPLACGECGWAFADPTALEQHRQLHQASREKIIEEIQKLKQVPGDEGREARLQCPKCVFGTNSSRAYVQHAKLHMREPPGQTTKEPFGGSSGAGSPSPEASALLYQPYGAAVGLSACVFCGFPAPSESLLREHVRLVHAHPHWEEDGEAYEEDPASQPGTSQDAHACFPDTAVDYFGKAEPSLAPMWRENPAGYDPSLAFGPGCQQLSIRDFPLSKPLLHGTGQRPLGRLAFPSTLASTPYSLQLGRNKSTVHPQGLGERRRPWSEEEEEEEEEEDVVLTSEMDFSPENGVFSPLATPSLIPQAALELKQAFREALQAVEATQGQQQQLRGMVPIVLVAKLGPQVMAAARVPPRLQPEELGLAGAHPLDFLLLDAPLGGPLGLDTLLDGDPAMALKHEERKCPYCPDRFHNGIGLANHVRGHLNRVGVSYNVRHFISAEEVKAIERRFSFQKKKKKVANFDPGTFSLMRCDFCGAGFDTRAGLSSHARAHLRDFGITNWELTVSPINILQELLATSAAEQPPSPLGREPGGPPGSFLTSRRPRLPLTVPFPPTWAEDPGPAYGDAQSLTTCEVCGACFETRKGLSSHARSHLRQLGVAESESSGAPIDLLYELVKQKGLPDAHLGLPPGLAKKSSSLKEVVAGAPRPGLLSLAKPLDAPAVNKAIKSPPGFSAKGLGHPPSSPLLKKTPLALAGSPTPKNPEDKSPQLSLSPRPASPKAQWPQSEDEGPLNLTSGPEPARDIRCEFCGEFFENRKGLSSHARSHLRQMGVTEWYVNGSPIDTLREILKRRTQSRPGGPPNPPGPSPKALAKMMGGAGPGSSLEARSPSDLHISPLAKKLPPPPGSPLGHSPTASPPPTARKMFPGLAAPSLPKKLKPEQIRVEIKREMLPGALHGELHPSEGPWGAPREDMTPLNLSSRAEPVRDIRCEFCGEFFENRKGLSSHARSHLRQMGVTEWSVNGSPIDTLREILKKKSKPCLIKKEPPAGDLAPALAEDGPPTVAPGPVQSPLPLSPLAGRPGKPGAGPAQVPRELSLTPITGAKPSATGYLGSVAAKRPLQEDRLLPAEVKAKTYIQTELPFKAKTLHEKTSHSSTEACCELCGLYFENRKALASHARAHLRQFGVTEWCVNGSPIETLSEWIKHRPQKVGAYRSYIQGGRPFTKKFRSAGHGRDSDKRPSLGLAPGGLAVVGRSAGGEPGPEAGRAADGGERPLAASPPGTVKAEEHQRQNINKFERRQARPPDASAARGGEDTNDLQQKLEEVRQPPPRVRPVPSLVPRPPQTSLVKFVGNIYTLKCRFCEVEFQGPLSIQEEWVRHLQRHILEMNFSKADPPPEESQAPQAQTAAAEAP
T1 sequence (Q96SW2 whole entry): as the sequence (Q96SW2 whole entry) above
T1 sequence (Q16531 whole entry partner): as the sequence (Q16531 whole entry partner) above

SMILES | DC50 (WIZ) [nM] | DC50 (ZBTB7A) [nM] | HBF AUC (HbF)
Cc1cc(-c2c(Nc3cccc4c3C(=O)N([C@H]3CCC(=O)NC3=O)C4=O)cc3c(c2F)CCC(=O)N3C)ccn1 [Compound 90, (S)-2-(2,6-dioxopiperidin-3-yl)-4-((5-fluoro-1-methyl-6-(2-methylpyridin-4-yl)-2-oxo-1,2,3,4-tetrahydroquinolin-7-yl)amino)isoindoline-1,3-dione] | 14 | 24 | ++ (++ = 100 ≤ AUC < 150)
CN1C(=O)CCc2cc(C3CCN(C(=O)C4CC4)CC3)c(Nc3cccc4c3C(=O)N(C3CCC(=O)NC3=O)C4=O)cc21 (stereo not drawn) [Compound 93, 4-((6-(1-(cyclopropanecarbonyl)piperidin-4-yl)-1-methyl-2-oxo-1,2,3,4-tetrahydroquinolin-7-yl)amino)-2-(2,6-dioxopiperidin-3-yl)isoindoline-1,3-dione] | 4 | 15 | ++ (++ = 100 ≤ AUC < 150)
C=CN1C(=O)CCc2cc(-c3ccnc(C)c3)c(Nc3cccc4c3C(=O)N(C3CCC(=O)NC3=O)C4=O)cc21 (stereo not drawn) [Compound 94, 2-(2,6-dioxopiperidin-3-yl)-4-((6-(2-methylpyridin-4-yl)-2-oxo-1-vinyl-1,2,3,4-tetrahydroquinolin-7-yl)amino)isoindoline-1,3-dione] | 17 | 28 | + (+ = 15 ≤ AUC < 100)
Cc1cc(-c2cc3c(cc2Nc2cccc4c2C(=O)N(C2CCC(=O)NC2=O)C4=O)N(C)C(=O)CC3C)ccn1 (stereo not drawn) [Compound 96, 4-((1,4-dimethyl-6-(2-methylpyridin-4-yl)-2-oxo-1,2,3,4-tetrahydroquinolin-7-yl)amino)-2-(2,6-dioxopiperidin-3-yl)isoindoline-1,3-dione] | 11 | 13 | ++ (++ = 100 ≤ AUC < 150)

More lines, main results first:

DC50 (WIZ) [nM] | DC50 (ZBTB7A) [nM] | SMILES | HBF AUC (HbF)
4 | 4 | CO[C@H]1CC[C@H](c2cc3c(cc2Nc2cccc4c2C(=O)N([C@H]2CCC(=O)NC2=O)C4=O)N(C)C(=O)CC3)CC1 [Compound 91, 2-((S)-2,6-dioxopiperidin-3-yl)-4-((6-((1r,4S)-4-methoxycyclohexyl)-1-methyl-2-oxo-1,2,3,4-tetrahydroquinolin-7-yl)amino)isoindoline-1,3-dione] | ++ (++ = 100 ≤ AUC < 150)
2 | 3 | CO[C@H]1CC[C@@H](c2cc3c(cc2Nc2cccc4c2C(=O)N(C2CCC(=O)NC2=O)C4=O)N(C)C(=O)CC3)CC1 (stereo partly drawn) [Compound 92, 2-(2,6-dioxopiperidin-3-yl)-4-((6-((1s,4s)-4-methoxycyclohexyl)-1-methyl-2-oxo-1,2,3,4-tetrahydroquinolin-7-yl)amino)isoindoline-1,3-dione] | + (+ = 15 ≤ AUC < 100)
89 | 256 | Cc1cc(-c2nc3c(cc2Nc2cccc4c2C(=O)N([C@H]2CCC(=O)NC2=O)C4=O)N(C)C(=O)CC3)ccn1 [Compound 95, (S)-2-(2,6-dioxopiperidin-3-yl)-4-((5-methyl-2-(2-methylpyridin-4-yl)-6-oxo-5,6,7,8-tetrahydro-1,5-naphthyridin-3-yl)amino)isoindoline-1,3-dione] | + (+ = 15 ≤ AUC < 100)
